How the values were obtained:
[1] = compound: Nc1nc2c(ncn2[C@@H]2O[C@H](COP(=O)(O)OP(=O)(O)OP(=O)(O)O)[C@@H](O)[C@H]2O)c(=O)[nH]1 [guanosine triphosphate]; experiment: pEC50 of GTP-induced change in protein thermal stability (2D-TPP)
Experimental: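 2D thermal proteome profiling in Jurkat crude lysate. Lysate was treated 10 min at room temperature with Na-GTP (0, 0.001, 0.01, 0.1, 0.5 mM), heated to 12 temperatures (42-63.9 °C) for 3 min, and soluble protein was quantified by TMT10 LC-MS/MS. pEC50 is the median over replicates of dose-response fits (FDR-controlled hits).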

[2] = compound: Nc1ncnc2c1ncn2[C@@H]1O[C@H](COP(=O)(O)OP(=O)(O)OP(=O)(O)O)[C@@H](O)[C@H]1O [adenosine triphosphate]; experiment: pEC50 of ATP-induced change in protein thermal stability (2D-TPP)
Outline: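 Soluble protein was quantified by TMT LC-MS/MS after ultracentrifugation of Jurkat crude lysate that had been dosed at five concentrations including vehicle (10 min, room temperature), heated at 12 temperatures of 42–63.9 °C for 3 min, and incubated with NP40 and benzonase at 4 °C for 60 min. Fold changes against vehicle at each temperature were median-normalised, and pEC50 was derived from per-replicate dose-response fits over adjacent temperature pairs. Hits were called with permutation-based false discovery rate control in three independent experiments.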
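Wherever pEC50 of ATP-induced change in protein thermal stability (2D-TPP) is given: lysate dosed with Na-ATP at 0 0.005 0.05 0.5 and 2 mM.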

Sequence of UniProt Q01105 (Q01105 whole entry): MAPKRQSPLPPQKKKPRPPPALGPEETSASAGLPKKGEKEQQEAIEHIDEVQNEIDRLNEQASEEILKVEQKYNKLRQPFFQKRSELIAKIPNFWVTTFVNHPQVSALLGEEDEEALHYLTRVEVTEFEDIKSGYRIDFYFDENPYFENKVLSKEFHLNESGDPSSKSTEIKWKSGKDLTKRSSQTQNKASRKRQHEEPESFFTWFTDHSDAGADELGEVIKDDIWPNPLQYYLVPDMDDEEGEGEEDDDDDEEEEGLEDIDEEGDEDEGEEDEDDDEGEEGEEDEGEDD
Sequence of UniProt P61006 (P61006 whole entry): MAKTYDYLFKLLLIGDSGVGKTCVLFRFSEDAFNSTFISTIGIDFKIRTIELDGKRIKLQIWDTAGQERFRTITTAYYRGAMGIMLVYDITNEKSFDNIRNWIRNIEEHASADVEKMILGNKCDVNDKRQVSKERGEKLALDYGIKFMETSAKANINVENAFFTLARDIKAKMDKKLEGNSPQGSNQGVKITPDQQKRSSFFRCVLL
Sequence of UniProt O95861 (O95861 whole entry): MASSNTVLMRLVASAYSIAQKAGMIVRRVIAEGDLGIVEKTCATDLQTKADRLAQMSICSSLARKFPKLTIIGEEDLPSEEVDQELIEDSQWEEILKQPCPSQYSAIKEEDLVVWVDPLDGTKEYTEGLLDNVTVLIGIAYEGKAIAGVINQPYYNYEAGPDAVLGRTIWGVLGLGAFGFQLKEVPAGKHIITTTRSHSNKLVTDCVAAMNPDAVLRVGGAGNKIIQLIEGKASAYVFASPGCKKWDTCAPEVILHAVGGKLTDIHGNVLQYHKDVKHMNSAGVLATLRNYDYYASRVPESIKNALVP
Sequence of UniProt Q16774 (Q16774 whole entry): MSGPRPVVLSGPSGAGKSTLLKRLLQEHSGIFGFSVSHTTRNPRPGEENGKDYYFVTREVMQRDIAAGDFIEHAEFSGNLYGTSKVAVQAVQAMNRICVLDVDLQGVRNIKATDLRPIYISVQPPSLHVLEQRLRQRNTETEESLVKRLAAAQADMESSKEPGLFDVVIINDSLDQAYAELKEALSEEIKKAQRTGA
Sequence of UniProt O60547 (O60547 whole entry): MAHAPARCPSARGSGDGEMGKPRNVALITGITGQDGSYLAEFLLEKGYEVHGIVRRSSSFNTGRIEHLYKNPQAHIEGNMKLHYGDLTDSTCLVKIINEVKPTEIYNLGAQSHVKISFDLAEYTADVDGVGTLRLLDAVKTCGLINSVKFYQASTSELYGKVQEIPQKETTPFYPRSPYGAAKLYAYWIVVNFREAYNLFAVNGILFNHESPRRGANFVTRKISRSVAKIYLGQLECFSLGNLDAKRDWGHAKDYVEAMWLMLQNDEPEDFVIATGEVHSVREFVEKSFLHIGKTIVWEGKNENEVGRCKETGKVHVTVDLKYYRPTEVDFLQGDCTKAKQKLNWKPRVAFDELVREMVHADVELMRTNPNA
Sequence of UniProt Q9H078 (Q9H078 whole entry): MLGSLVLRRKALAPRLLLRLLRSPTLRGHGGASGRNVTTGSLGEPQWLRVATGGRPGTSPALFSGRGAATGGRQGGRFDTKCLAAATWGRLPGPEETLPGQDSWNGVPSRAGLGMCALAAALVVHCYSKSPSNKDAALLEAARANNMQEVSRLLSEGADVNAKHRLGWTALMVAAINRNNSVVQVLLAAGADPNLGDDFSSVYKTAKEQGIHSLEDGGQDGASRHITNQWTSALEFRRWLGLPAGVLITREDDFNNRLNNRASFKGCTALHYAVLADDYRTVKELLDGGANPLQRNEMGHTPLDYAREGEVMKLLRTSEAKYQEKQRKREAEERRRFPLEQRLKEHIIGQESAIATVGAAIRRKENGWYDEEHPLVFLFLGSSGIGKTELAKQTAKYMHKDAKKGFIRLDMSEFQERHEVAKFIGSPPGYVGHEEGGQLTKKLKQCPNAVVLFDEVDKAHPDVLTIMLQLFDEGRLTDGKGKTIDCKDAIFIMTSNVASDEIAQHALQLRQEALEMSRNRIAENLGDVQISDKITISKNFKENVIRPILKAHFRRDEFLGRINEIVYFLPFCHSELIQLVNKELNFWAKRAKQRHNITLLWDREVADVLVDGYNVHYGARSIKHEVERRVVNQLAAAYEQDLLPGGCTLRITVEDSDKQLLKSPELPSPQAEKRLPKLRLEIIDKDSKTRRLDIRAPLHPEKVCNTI
Sequence of UniProt P36542 (P36542 whole entry): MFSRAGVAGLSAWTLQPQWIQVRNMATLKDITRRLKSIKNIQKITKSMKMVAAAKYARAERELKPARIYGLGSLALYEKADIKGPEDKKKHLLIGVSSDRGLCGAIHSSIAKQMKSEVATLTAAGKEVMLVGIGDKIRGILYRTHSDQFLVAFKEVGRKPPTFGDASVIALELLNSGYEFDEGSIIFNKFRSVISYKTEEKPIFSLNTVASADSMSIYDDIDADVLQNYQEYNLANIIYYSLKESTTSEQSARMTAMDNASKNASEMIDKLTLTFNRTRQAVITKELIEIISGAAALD
Sequence of UniProt P62333 (P62333 whole entry): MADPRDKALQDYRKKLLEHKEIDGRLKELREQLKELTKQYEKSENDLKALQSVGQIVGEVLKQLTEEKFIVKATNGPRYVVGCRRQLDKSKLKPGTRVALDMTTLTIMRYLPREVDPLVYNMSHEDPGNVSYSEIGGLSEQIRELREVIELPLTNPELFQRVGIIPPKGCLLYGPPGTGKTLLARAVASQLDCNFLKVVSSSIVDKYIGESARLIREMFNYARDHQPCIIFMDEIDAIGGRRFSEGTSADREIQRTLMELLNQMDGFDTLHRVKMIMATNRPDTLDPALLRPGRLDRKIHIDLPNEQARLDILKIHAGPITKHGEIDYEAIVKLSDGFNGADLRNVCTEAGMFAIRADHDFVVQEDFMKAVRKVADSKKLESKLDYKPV
Sequence of UniProt P61106 (P61106 whole entry, looked up): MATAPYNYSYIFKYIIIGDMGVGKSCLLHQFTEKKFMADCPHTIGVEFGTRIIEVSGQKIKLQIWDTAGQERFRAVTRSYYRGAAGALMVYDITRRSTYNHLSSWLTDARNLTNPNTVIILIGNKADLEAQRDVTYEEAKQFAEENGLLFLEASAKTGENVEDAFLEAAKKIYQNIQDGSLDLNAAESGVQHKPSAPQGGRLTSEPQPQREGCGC
Sequence of UniProt P48047 (P48047 whole entry): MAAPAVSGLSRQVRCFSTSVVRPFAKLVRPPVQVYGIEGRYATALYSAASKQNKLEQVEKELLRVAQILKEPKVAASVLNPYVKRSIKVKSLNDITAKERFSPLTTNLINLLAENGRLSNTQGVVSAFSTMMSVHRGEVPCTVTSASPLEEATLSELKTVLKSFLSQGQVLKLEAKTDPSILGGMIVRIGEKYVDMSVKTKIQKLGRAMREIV
Sequence of UniProt Q9UI10 (Q9UI10 whole entry): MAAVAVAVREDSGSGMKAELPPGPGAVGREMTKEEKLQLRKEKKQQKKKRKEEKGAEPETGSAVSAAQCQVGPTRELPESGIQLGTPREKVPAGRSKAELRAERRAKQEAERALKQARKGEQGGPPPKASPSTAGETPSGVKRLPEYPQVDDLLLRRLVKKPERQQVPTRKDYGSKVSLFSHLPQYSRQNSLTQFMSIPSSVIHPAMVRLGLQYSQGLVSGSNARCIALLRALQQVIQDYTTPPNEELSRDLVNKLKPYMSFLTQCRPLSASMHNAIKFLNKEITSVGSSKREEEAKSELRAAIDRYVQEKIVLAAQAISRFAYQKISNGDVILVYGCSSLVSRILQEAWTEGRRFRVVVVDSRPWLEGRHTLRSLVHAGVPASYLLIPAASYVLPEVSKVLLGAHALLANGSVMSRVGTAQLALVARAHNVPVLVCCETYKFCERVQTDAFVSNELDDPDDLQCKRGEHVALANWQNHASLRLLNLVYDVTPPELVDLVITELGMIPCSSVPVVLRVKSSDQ
Sequence of UniProt P51148 (P51148 whole entry): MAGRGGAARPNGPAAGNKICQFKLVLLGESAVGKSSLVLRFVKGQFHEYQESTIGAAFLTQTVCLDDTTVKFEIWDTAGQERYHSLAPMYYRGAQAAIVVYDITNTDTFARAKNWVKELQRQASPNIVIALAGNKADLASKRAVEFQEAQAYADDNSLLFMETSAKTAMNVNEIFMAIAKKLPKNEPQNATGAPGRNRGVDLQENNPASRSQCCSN
Sequence of UniProt Q8WUD1 (Q8WUD1 whole entry): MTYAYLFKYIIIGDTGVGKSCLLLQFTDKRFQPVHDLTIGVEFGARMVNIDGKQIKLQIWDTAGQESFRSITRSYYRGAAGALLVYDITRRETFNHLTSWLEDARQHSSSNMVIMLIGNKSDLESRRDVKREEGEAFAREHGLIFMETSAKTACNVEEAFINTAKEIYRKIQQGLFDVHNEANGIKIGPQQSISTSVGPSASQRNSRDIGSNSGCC
Sequence of UniProt P68363 (P68363 whole entry): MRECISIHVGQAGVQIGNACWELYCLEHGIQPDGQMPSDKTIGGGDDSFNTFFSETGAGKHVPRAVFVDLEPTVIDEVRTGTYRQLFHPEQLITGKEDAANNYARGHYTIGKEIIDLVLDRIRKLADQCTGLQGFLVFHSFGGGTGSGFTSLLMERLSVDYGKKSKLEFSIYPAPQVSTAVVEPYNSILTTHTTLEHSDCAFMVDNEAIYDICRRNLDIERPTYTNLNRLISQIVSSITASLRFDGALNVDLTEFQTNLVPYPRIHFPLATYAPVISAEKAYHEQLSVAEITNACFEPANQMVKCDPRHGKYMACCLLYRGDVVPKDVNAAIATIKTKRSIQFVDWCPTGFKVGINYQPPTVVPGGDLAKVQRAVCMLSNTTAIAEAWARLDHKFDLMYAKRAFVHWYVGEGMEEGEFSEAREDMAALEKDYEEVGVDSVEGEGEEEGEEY
Sequence of UniProt Q92688 (Q92688 whole entry): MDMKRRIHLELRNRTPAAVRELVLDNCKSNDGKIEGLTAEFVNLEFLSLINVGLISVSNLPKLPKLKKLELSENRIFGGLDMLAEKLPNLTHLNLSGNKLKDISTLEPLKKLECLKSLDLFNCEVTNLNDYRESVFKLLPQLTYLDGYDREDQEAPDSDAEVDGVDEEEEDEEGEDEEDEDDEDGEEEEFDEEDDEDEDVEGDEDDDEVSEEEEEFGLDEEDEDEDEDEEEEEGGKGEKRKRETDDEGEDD

pEC50 [1] | pEC50 [2] | Target
3.88 | 3.8 | OSGEP (effect direction: stabilized) (UniProt Q9NPF4)
3.76 | 4.05 | UniProt P61086 (effect direction: stabilized)
3.89 | 4.18 | AFG3L2 (effect direction: stabilized) (UniProt Q9Y4W6)
3.91 | 3.78 | GUK1 (effect direction: stabilized) (UniProt Q16774)
3.86 | 3.08 | THUMPD1 (effect direction: stabilized) (UniProt Q9NXG2)
3.5 | 3.43 | SUCLG2 (effect direction: stabilized) (UniProt Q96I99)
4.04 | 2.8 | GNL1 (effect direction: stabilized) (UniProt P36915)
3.86 | 4.18 | UniProt Q712K3 (effect direction: stabilized)
3.75 | 2.89 | ANP32B (effect direction: stabilized) (UniProt Q92688)
3.79 | 3.98 | HMGCS1 (effect direction: stabilized) (UniProt Q01581)
3.77 | 4.33 | RUVBL2 (effect direction: stabilized) (UniProt Q9Y230)
3.69 | 3.97 | HARS (effect direction: stabilized) (UniProt P12081)
4.35 | 3.53 | UniProt Q15286 (effect direction: stabilized)
3.71 | 3.06 | SET (effect direction: stabilized) (UniProt Q01105)
3.7 | 2.92 | TBCD (effect direction: stabilized) (UniProt Q9BTW9)
4.51 | 2.85 | GNAI2 (effect direction: stabilized) (UniProt P04899)
3.94 | 3.58 | EEF2 (effect direction: stabilized) (UniProt P13639)
3.83 | 3.38 | DNM1L (effect direction: stabilized) (UniProt O00429)
4.05 | 3.48 | UniProt P61225 (effect direction: stabilized)
3.36 | 3.08 | GMPPA (effect direction: stabilized) (UniProt Q96IJ6)
< 3.3 | < 2.7 | TNPO2 (effect direction: stabilized) (UniProt O14787)
3.66 | 3.94 | UniProt O75323 (effect direction: stabilized)
3.9 | 3.92 | DARS (effect direction: stabilized) (UniProt P14868)
3.75 | 4.38 | UniProt P62333 (effect direction: stabilized)
3.76 | 3.08 | TNPO3 (effect direction: stabilized) (UniProt Q9Y5L0)

pEC50 [1] | pEC50 [2] | Target
4.05 | 3.35 | UniProt P07437 (effect direction: stabilized)
4.11 | 4.02 | NEK7 (effect direction: stabilized) (UniProt Q8TDX7)
3.79 | 3.57 | VARS (effect direction: stabilized) (UniProt P26640)
4.02 | 2.72 | GMDS (effect direction: stabilized) (UniProt O60547)
4.52 | 3.45 | RAB2B (effect direction: stabilized) (UniProt Q8WUD1)
4.04 | 3.77 | MFN2 (effect direction: stabilized) (UniProt O95140)
3.81 | 3.91 | NDUFA10 (effect direction: stabilized) (UniProt O95299)
3.57 | 3.44 | IPO7 (effect direction: stabilized) (UniProt O95373)
3.38 | 3.13 | UAP1L1 (effect direction: stabilized) (UniProt Q3KQV9)
4.3 | 3.56 | CSK (effect direction: stabilized) (UniProt P41240)
4.49 | 4.22 | RAB5C (effect direction: stabilized) (UniProt P51148)
3.46 | 3.22 | AK3 (effect direction: stabilized) (UniProt Q9UIJ7)
3.96 | 3.12 | UniProt Q9BW83 (effect direction: stabilized)
4.22 | 3.69 | UniProt Q16512 (effect direction: stabilized)
3.73 | 3.65 | EIF2B4 (effect direction: stabilized) (UniProt Q9UI10)
3.59 | < 2.7 | BPNT1 (effect direction: destabilized) (UniProt O95861)
4.51 | 4.15 | RAB8A (effect direction: stabilized) (UniProt P61006)
4.06 | 3.58 | MCM2 (effect direction: stabilized) (UniProt P49736)
3.44 | 3.19 | ATL3 (effect direction: stabilized) (UniProt Q6DD88)
3.77 | 3.88 | CAMK4 (effect direction: stabilized) (UniProt Q16566)
4.12 | 3.77 | EIF2B5 (effect direction: stabilized) (UniProt Q13144)
3.92 | 4.33 | VPS4B (effect direction: stabilized) (UniProt O75351)
3.95 | 3.71 | MTHFD1 (effect direction: stabilized) (UniProt P11586)
3.88 | 2.98 | UniProt P68363 (effect direction: stabilized)
3.9 | 3.53 | UniProt P48047 (effect direction: stabilized)

pEC50 [1] | pEC50 [2] | Target
4.29 | 4.21 | KIF2A (effect direction: stabilized) (UniProt O00139)
3.83 | 4.09 | DHX38 (effect direction: stabilized) (UniProt Q92620)
4.19 | 4.02 | CLPB (effect direction: stabilized) (UniProt Q9H078)
4.15 | 3.3 | ARL2 (effect direction: stabilized) (UniProt P36404)
4.31 | 3.74 | UniProt P62820 (effect direction: stabilized)
3.91 | 4.03 | LONP1 (effect direction: stabilized) (UniProt P36776)
4.44 | 4.29 | NME4 (effect direction: stabilized) (UniProt O00746)
3.78 | 3.2 | SUCLA2 (effect direction: stabilized) (UniProt Q9P2R7)
3.89 | 3.39 | RAB33A (effect direction: stabilized) (UniProt Q14088)
4.65 | 4.13 | MAX (effect direction: destabilized) (UniProt P61244)
4.12 | 4.25 | UniProt P36542 (effect direction: stabilized)
4.33 | 3.66 | UniProt P61106 (effect direction: stabilized)
3.88 | – | RAB1B (effect direction: stabilized) (UniProt Q9H0U4)
4.2 | – | HSPD1 (effect direction: destabilized) (UniProt P10809)
4.33 | – | RALA (effect direction: stabilized) (UniProt P11233)
3.8 | – | RFC5 (effect direction: stabilized) (UniProt P40937)
3.8 | – | DHX37 (effect direction: stabilized) (UniProt Q8IY37)
4.21 | – | ETNK1 (effect direction: stabilized) (UniProt Q9HBU6)
3.98 | – | UniProt P62330 (effect direction: stabilized)
3.93 | – | RAB12 (effect direction: stabilized) (UniProt Q6IQ22)
3.69 | – | ABCD3 (effect direction: stabilized) (UniProt P28288)
4.17 | – | NKIRAS2 (effect direction: stabilized) (UniProt Q9NYR9)
3.74 | – | TAP1 (effect direction: stabilized) (UniProt Q03518)

From the supplement of paper PMC6411743
